Reference: patent US20230218572A1, “COMPOSITIONS AND METHODS FOR IMPROVED MESENCHYMAL STEM CELL THERAPY” (Versitech Limited, priority 2021, published 2023)
“Also recorded” adds a separate entry of the source.

Key:
CD55 mRNA = CD55 mRNA expression of hMSCs by RT-qPCR; format: cell-based, human; conditions: for CD55 mRNA expression of hMSCs compared to untreated control: AT-, BM-, UC-hMSC, Erlotinib 2, 5, 10 μM or atorvastatin 2, 5, 25, 50 μM, within 24 hours, normalized to GADPH; for Dose dependence of CD55 upregulation in hMSCs: Erlotinib 2-10 μM, atorvastatin 2-50 μM; for Expression of CD55 on hMSC vs untreated control (mRNA or protein level not specified): drug treatment of hMSC
Method: (§1) FIG. 9 is a bar graph of CD55 mRNA expression of hMSCs in presence of atorvastatin, showing % Normalized to GADPH (0-25) for each MSC group Adipose Tissue (AT; red), Bone Marrow (BM; blue), and Umbilical Cord (UC; green), respectively, in the presence of 0 μM (untreated control) 2 μM, 5 μM, 25 μM, and 50 μM atorvastatin.
as §1, with “10” for “9”, “Erlotinib,” for “atorvastatin,”, “μM,” for “μM, 25 μM,”, “10” for “50”, “Erlotinib.” for “atorvastatin.”
(§2) The expression of CD55 in hMSC was then validated by RT-qPCR and flow cytometry.
hMSC were treated with Erlotinib, which is an EGFR inhibitor, on different dosages within 24 hours, […]

CD55 surface protein = CD55 surface protein expression on hMSCs by flow cytometry; format: cell-based, human; conditions: AT-, BM-, UC-hMSC, 5 μM Atr or 5 μM Erl, 24 hr
Method: FIG. 11 is a bar graph of CD55 surface expression on hMSCs following 24 hr in presence of Atorvastatin (Atr) or Erlotinib (Erl), showing % of CD55+ cells (0-100) for each MSC group Adipose Tissue (AT; red), Bone Marrow (BM; blue), and Umbilical Cord (UC; green), respectively, in the presence of nothing (untreated control) 5 μM Atr, or 5 μM Erl.
as §2

Row | SMILES | CD55 mRNA expression of hMSCs compared to untreated control (CD55 mRNA) | Dose dependence of CD55 upregulation in hMSCs (CD55 mRNA) | Expression of CD55 on hMSC vs untreated control (mRNA or protein level not specified) (CD55 mRNA) | CD55 surface protein level on hMSCs compared with untreated control (CD55 surface protein)
1 | CC(C)c1c(C(=O)Nc2ccccc2)c(-c2ccccc2)c(-c2ccc(F)cc2)n1CC[C@@H](O)C[C@@H](O)CC(=O)O [atorvastatin, Atorvastatin] | increase the expression of CD55 of hMSCs in both mRNA and protein level | there was not a similar dose dependent relationship | significantly increased of CD55 expression; also recorded: significantly higher expression of CD55 than untreated control | increase the expression of CD55 of hMSCs in both mRNA and protein level
2 | C#Cc1cccc(Nc2ncnc3cc(OCCOC)c(OCCOC)cc23)c1 [erlotinib, Erlotinib] | increased CD55 expression with significance difference in mRNA level compared to untreated control | dose dependent manner | significantly increased of CD55 expression; also recorded: significantly higher expression of CD55 than untreated control | significantly upregulated compared with untreated control
